Data published in patent US10626094B2 (La Jolla Institute of Allergy & Immunology, priority 2014, dated 2020).

Experiments:
[1] = serum alanine transaminase / aspartate transaminase (liver function) in treated mice; type: in vivo, mouse; conditions: treated mice vs vehicle
Method: Serum alanine transaminase or aspartate transaminase levels from mice treated with Compound D1 (ML400) or vehicle (mice shown in FIG. 10) were assessed using EnzyChrom Assay Kits from BioAssay Systems.

[2] = plasma stability, human plasma; type: in vitro ADME
Description: (§1) Plasma stability is a measure of the stability of small molecules and peptides in plasma and is an important parameter, which can strongly influence the in vivo efficacy of a test compound. Drug candidates are exposed to enzymatic processes (proteinases. esterases) in plasma, and they can undergo intramolecular rearrangement or bind irreversibly (covalently) to proteins.

[3] = system: obese C57BL/6 mice on HFD; assay: IPGTT glucose tolerance in high-fat diet obese mice; type: in vivo, mouse; conditions: 30 mg/kg IP daily, 4 weeks, 2 g glucose/kg
Method: Male C57BL/6 mice were maintained on HFD containing 60 kcal % fat for 3 months, followed by daily IP administration of 30 mg/kg Compound D1 or vehicle. After 4 weeks, IPGTT were performed using 2 g glucose/kg body weight. Mean±SEM is shown. *, p<0.05, Two-way ANOVA.

[4] = serum creatinine (kidney function) in treated mice; type: in vivo, mouse; conditions: treated mice vs vehicle
Method: Serum creatinine levels from mice treated with Compound D1 (ML400) or vehicle (mice shown in FIG. 9) were assessed using the QuantiChrom Creatinine Assay Kit from BioAssay Systems.

[5] = hepatic microsomal stability, mouse liver microsomes; type: in vitro ADME
Description: (§2) In the course of this investigation many compounds with similar potencies in the LMPTP (OMFP) assay were found. In order to determine which compound would be the best candidate for in vivo studies, an abbreviated ADME panel was ran on these compounds, a tabulation of the most interesting data on this set of compounds is illustrated in Table 3 below. From the hepatic microsome stability data the candidate selected for in vivo studies was Compound D1.
(§3) The microsomal stability assay is commonly used to rank compounds according to their metabolic stability. This assay addresses the pharmacologic question of how long the parent compound will remain circulating in plasma within the body.

[6] = aqueous solubility (buffer pH 5.0-7.4, PBS); type: physicochemical; conditions: for solubility: Pion's buffer
[7] = plasma stability, mouse plasma; type: in vitro ADME
Description: as §1

[8] = molecular target: LYP-1 (lymphoid phosphatase, LYP) (Homo sapiens (Human), UniProt Q9Y2R2); assay: LYP-1 phosphatase selectivity dose response assay; type: biochemical
Sequence of LYP-1 (lymphoid phosphatase, LYP) (Q9Y2R2 whole entry, species assumed, canonical isoform): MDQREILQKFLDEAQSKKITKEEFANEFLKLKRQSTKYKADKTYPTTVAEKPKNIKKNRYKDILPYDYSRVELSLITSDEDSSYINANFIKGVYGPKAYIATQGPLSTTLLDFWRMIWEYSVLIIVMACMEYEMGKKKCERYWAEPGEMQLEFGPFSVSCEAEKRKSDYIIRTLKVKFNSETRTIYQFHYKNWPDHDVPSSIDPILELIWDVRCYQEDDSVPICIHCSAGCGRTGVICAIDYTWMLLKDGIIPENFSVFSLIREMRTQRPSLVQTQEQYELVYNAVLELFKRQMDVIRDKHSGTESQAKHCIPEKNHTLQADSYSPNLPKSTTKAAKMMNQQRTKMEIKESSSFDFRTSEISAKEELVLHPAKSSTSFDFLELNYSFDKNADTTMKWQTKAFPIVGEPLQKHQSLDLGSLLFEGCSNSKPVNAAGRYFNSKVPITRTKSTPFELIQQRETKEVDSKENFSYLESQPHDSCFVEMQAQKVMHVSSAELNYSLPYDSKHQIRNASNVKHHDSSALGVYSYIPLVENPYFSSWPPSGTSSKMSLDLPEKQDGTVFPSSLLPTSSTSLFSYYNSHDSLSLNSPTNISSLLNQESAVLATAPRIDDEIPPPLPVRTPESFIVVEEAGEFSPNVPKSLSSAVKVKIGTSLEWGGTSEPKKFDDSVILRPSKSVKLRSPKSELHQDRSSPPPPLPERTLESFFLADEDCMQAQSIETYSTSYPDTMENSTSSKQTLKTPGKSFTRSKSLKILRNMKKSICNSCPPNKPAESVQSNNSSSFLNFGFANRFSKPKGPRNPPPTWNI
Description: (§4) Disclosed herein is a collection of small-molecule inhibitors of the low molecular weight protein tyrosine phosphatase (LMPTP). The assays utilized in the primary and secondary screening were designed to identify allosteric inhibitors of LMPTP. […] The structure of the compounds was further optimized to generate a series of inhibitors of LMPTP-A isoform, with high selectivity over the LMPTP-B isoform, LYP and VHR, and with cellular activity. In an aspect is provided a compound having the formula: […]
(§5) LYP-1 and VHR-1 dose response assays to assess selectivity of Compound D1 against these non-homologous phosphatases.

[9] = rodent pharmacokinetics in male C57BL/6 mice (IV, PO, IP); type: in vivo, mouse
Method: The inventors also examined ML400 (also described herein as MLS-0472870 or Compound D1) for its rodent pharmacokinetics. The probe Compound D1 was profiled in Male C57BL/6 Mice, with n=3 for each group studied (IV, IP and PO arms). The formulation used was 1.00 mg/mL in DMSO:Tween80:Water=5:5:90, which gave a clear solution. […] Enterohepatic circulation was also observed for this compound. This compound has acceptable parameters for future in vivo studies (see Table 4 and FIG. 13).

[10] = molecular target: VHR-1 (VH1-related phosphatase, VHR) (Homo sapiens (Human), UniProt P51452); assay: VHR-1 phosphatase selectivity dose response assay; type: biochemical
Sequence of VHR-1 (VH1-related phosphatase, VHR) (P51452 whole entry): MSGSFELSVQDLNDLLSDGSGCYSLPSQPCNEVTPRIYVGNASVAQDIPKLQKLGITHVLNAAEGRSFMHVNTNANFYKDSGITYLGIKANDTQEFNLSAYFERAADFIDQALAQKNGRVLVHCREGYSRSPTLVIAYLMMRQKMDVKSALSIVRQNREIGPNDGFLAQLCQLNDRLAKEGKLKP
Description: as §4, §5

LMPTP [11] = molecular target: T1, LMPTP (Homo sapiens (Human), UniProt P24666); assay: mechanism of action: LMPTP activity on OMFP at increasing inhibitor concentrations (Michaelis-Menten); type: biochemical
T1 sequence (P24666 whole entry): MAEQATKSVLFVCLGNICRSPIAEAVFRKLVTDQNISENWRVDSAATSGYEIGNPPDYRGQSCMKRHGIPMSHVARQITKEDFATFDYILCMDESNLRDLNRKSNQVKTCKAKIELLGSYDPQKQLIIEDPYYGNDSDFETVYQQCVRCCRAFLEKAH
Method: Activity of 20 nM LMPTP on OMFP substrate in the presence of increasing concentrations of ML400. Reactions were conducted at 37° C. in 50 mM Bis-Tris, pH 6.0 with 1 mM DTT and 0.01% Triton X-100. Mean±SD is shown. Lines show fitting of data to the Michaelis-Menten equation. Note decrease in both Vmax and KM with increasing inhibitor concentration.

LMPTP [12] = molecular target: T1, LMPTP; assay: LMPTP enzyme inhibition assay with pNPP as substrate; type: biochemical; conditions: n = 2; AID 743308; read-out: LMPTP Orthogonal assay IC50
[13] = hepatic microsomal stability, human liver microsomes; type: in vitro ADME
Description: as §2, §3

[14] = male, C57BL/6, mouse, in vivo, iv, […]
[15] = mouse, in vivo, male C57BL/6 mice, IP, 9.69 mg/kg
[16] = mouse, in vivo, male C57BL/6 mice, PO, 29.6 mg/kg

**Q.** With COc1ccc(-c2cc(NCCCN3CCCCC3)c3ccccc3n2)cc1 [Compound D1, 2-(4-methoxyphenyl)-N-(3-(piperidin-1-yl)propyl)quinolin-4-amine] as the compound, how does the “liver function (serum alanine transaminase or aspartate transaminase)” value [1] read?
**A.** The value was “does not Affect Liver Function”.

**Q.** What about the “Plasma Stability % Remaining @ 3 hrs” value ([2]; Human plasma, 3 hrs) of the same compound?
**A.** The value was 89.03%.

**Q.** And the plasma stability ([2]; human plasma)?
**A.** The plasma stability was “good stability”.

**Q.** What about the “glucose tolerance (IPGTT)” value [3] of the same compound?
**A.** Its value is “Improves Glucose Tolerance”.

**Q.** What about the “kidney function (serum creatinine)” value [4] of the same compound?
**A.** Its value is “does not Affect Kidney Function”.

**Q.** What about the “Hepatic Microsome Stability % Remaining @ 1 hr” value ([5]; Mouse microsomes, 1 hr) of the same compound?
**A.** The value was 48.75%.

**Q.** And the microsomal stability ([5]; mouse liver microsomes after 1 hour)?
**A.** The microsomal stability was “moderate stability”.

**Q.** And the “solubility in PBS” value ([6]; PBS, versus aqueous buffer)?
**A.** The value was “comparable”.

**Q.** What about the solubility ([6]; aqueous buffer, pH 5.0) of the same compound?
**A.** Its solubility is over 112 µg/mL.

**Q.** And the solubility ([6]; pH 6.2, aqueous buffer)?
**A.** Its solubility is over 112 µg/mL.

**Q.** And the solubility ([6]; pH 7.4, aqueous buffer)?
**A.** The solubility was over 112 µg/mL.

**Q.** What about the “concentration achieved in aqueous buffer” value ([6]; pH range of 5.0-7.4) of the same compound?
**A.** The value was 18-20 ×IC50.

**Q.** What about the “Plasma Stability % Remaining @ 3 hrs” value ([7]; Mouse plasma, 3 hrs) of the same compound?
**A.** The value was 68.97%.

**Q.** What about the plasma stability ([7]; mouse plasma) of the same compound?
**A.** Its plasma stability is “good stability”.

**Q.** And the Fold-Selective ([8]; LMPTP over LYP-1)?
**A.** The Fold-Selective was >60-fold.

**Q.** And the IC50 ([8]; n = 2, AID743309, read-out: Anti-target LYP-1 IC50)?
**A.** The IC50 was over 80 µM.

**Q.** What about the enterohepatic circulation ([9]; male C57BL/6 mice) of the same compound?
**A.** The enterohepatic circulation was “observed”.

**Q.** What about the “Cl (mL/min/kg)” value ([9]; male C57BL/6 mice, IV, […]) of the same compound?
**A.** Its value is “Low clearance”.

**Q.** What about the “Vdss (L/kg)” value ([9]; male C57BL/6 mice, IV, […]) of the same compound?
**A.** The value was “large volume of distribution”.

**Q.** And the clearance [9, 14]?
**A.** Its clearance is 25.8 mL/min/kg.

**Q.** And the half-life [9, 14]?
**A.** Its half-life is 39.6 h.

**Q.** What about the Vd ([9]; male, C57BL/6, mouse, in vivo, iv, […], read-out: Vdss) of the same compound?
**A.** The Vd was 83.1 L/kg.

**Q.** What about the AUC(0-inf) [9, 15] of the same compound?
**A.** Its AUC(0-inf) is 4520 ng·h/mL.

**Q.** And the Cmax [9, 15]?
**A.** Its Cmax is 365 ng/mL.

**Q.** And the Tmax [9, 15]?
**A.** Its Tmax is 0.33 h.

**Q.** And the half-life [9, 15]?
**A.** Its half-life is 32.5 h.

**Q.** And the AUC(0-inf) [9, 16]?
**A.** Its AUC(0-inf) is 6380 ng·h/mL.

**Q.** What about the Cmax [9, 16] of the same compound?
**A.** The Cmax was 3210 ng/mL.

**Q.** What about the Tmax [9, 16] of the same compound?
**A.** Its Tmax is 3.33 h.

**Q.** What about the half-life [9, 16] of the same compound?
**A.** Its half-life is 29.2 h.

**Q.** And the Fold-Selective ([10]; LMPTP over VHR-1)?
**A.** The Fold-Selective was >60-fold.

**Q.** And the IC50 ([10]; n = 2, AID743310, read-out: Anti-target VHR-1 IC50)?
**A.** Its IC50 is over 80 µM.

**Q.** And the “mechanism of action of LMPTP inhibition” value (LMPTP [11]; 20 nM LMPTP, OMFP substrate, 37° C., pH 6.0)?
**A.** Its value is “uncompetitive”.

**Q.** And the “effect on Vmax and KM” value (LMPTP [11]; increasing inhibitor concentration)?
**A.** Its value is “lowering both Vmax and KM”.

**Q.** And the IC50 (LMPTP [12])?
**A.** The IC50 was 3.52 ± 0.33 µM.

**Q.** What about the “Hepatic Microsome Stability % Remaining @ 1 hr” value ([13]; Human microsomes, 1 hr) of the same compound?
**A.** Its value is 61.56%.

**Q.** And the microsomal stability ([13]; human liver microsomes after 1 hour)?
**A.** The microsomal stability was “moderate stability”.
